This note sets out measurements from patent US20260137706A1, “METHODS OF TREATING INFLAMMATORY DISEASES” (INTERLINE THERAPEUTICS, INC., priority 2023, published 2026).

Experiment [1] has as its target T1, binding of His-XIAP(BIR2)-avi fusion protein to GST-RIPK2 fusion protein (RIPK2/XIAP) (Homo sapiens, UniProt O43353).
T1 construct: made in house; host or cells: baculovirus infected Sf9 cells
In words: RIPK2-XIAP binding competition PPI assay (TR-FRET). Conditions: RIPK2/XIAP binding competition PPI assay; for Emax: Amax, read-out: PPI Amax bin; for IC50: read-out: PPI IC50 bin. The source says: The ability of selected compounds of Formula (I) to inhibit the binding of an His-XIAP(BIR2)-avi fusion protein to a GST-RIPK2 fusion protein was quantified employing the TR-FRET-based competition assay as described in the following paragraphs.
Recombinant fusion protein of N-terminal Glutathione-S-Transferase (GST) and a fragment of human RIPK2 (amino acids 1-310 of accession number 043353), expressed in baculovirus infected Sf9 cells, purified via glutathione affinity chromatography, was used as GST-RIPK2 fusion protein. Recombinant fusion protein of N-terminal 6×Histidine (His), a fragment of human XIAP (amino acids 152-231 of accession number P98170), and C-terminal avi tag, expressed in baculovirus infected Sf9 cells, purified via Nickel NTA affinity chromatography, was used as the His-XIAP(BIR2)-avi fusion protein.
For the assay, a working solution of 1 nM GST-RIPK2, 25 nM His-XIAP(BIR2)-avi, 6 nM Anti-His-XL665 […] (Revvity Catalogue No. 61HISXLB), and 0.5 nM Anti-GST-Tb (Revvity Catalogue No. 61GSTTLB) in 25 mM Tris-HCl 7.5, 0.5 mM ethylene glycol-bis(2-aminoethylether)-N,N,N′,N′-tetraacetic acid (EGTA), 10 mM magnesium chloride (MgCl2), 2.5 mM dithiothreitol (DTT), 0.01% (w/v) bovine serum albumin (BSA), 0.005% (w/v) Pluronic F-127 (Sigma), 0.5 mM sodium ortho-vanadate, 5 mM β-Glycerophosphate disodium salt hydrate (BGP) was prepared. 50 nL of a 100-fold concentrated solution of each test compound in DMSO was dispensed via acoustic dispensing into a white low volume 384-well microtiter plate (Perkin Elmer Catalogue No. 6008280). Subsequently, 5 μL of the assay working solution were added.
The resulting mixture was incubated 120 min at 23° C. Subsequently, the amount of complex formed by the GST-RIPK2, XIAP(BIR2)-avi, Anti-His-XL665, and Anti-GST-Tb was evaluated by measurement of the resonance energy transfer from the Tb-cryptate to the XL665. Therefore, the fluorescence emissions at 520 nm and 665 nm after excitation at 337 nm were measured in a TR-FRET reader, e.g. a Pherastar FS (BMG Labtechnologies, Offenburg, Germany) or an Envision (PerkinElmer). The ratio of the emissions at 665 nm and at 520 nm was taken as the measure of the amount of the complex. The data were normalized (assay reaction without inhibitor=0% activity, 50 nM of GSK583=−100% activity).
For the RIPK2/XIAP binding competition PPI assay Amax values, “A” denotes an Amax of ≥80%; “B” denotes an Amax of 80%>B≥55; “C” denotes an Amax of 55%>C>30; and “D” denotes an Amax of ≤30%.
On the technique in general: Time-resolved FRET reads energy transfer from a long-lived donor to a nearby acceptor.

The test system of experiment [2] is NF-κB pathway (SEAP) in THP1-Dual cells. In words: THP-1 Dual cell SEAP assay (L18-MDP stimulated). Conditions: read-out: NF-κB THP1 IC50 bin. In kind it is cell-based. On the procedure: THP1-Dual™ cells (InvivoGen Cat #thpd-nfis) allow simultaneous assessment of the NF-κB pathway, by monitoring the activity of secreted embryonic alkaline phosphatase (SEAP) as well as the IRF pathway, by assessing the activity of a secreted luciferase (Lucia). Cells were cultured according to manufacturers' recommendations. For the assay, cell concentration was adjusted to 7.14×10^5 cells/mL in assay media (RPMI 1640, 2 mM L-Glutamine, 25 mM HEPES, 10% fetal bovine serum (heat-inactivated for 30 min at 56° C.), Pen-Strep (100 U/mL)) and 35 µL of cell suspension (˜25,000 cells) per well were added to a flat bottom 384-well plate (white opaque). Plate was centrifuged at 300 g for 2 min, compounds were added in serial dilution series according to the plate layout (volumes ˜500 nL-0.0152 nL) and plate was incubated at 37° C. in 5% CO2 for 30 min. Using assay media, a L18-MDP stock solution, that results in a final concentration of 10 ng/mL L18-MDP in each well when adding 15 μL to each well, was prepared. 15 μL of L18-MDP stock solution was added to each well, while 15 μL of assay media was added to the negative control wells. Plates were subsequently incubated at 37° C. in 5% CO2 overnight (20-24 h).
For the SEAP assay: without disturbing the cells at the bottom of the well, 15 μL supernatant was transferred to a clear 384-well flat bottom plate and 35 μL QUANTI-Blue Solution per well was added. Following a 2 h incubation at 37° C., the optical density (OD) was measured at 620-655 nm using a microplate reader (PheraStar FS microplate reader with protocol for OD 620-655 nm).
Values of media-only wells were subtracted and % inhibition for each compound concentration relative to the DMSO/L18-MDP-treated controls was calculated. Inhibition values+/−SD were fitted by non-linear regression using Prism software (GraphPad PRISM Software) to calculate IC50 values.

Where two headings read alike, the source gives them in different places.

T1 sequence (O43353 1-310 limits assumed): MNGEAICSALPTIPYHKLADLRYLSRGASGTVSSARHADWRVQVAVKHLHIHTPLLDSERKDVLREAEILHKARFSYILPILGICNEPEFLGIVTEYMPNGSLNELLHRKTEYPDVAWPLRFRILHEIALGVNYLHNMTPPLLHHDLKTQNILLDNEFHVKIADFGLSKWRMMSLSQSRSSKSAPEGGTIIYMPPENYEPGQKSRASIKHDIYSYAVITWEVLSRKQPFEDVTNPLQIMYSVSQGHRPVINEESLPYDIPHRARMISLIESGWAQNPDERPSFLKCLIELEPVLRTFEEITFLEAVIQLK

On to `COc1cc2ncc(-c3cc(NS(=O)(=O)c4cnn(C)c4)c(OC)c(OC)c3)n2cc1N1CC(C)CC1=O` (single isomer, unassigned) [Example 274], for which, in experiment [1], the Emax was over 80% and the IC50 (as a rule, the concentration that inhibits the measured activity by half) was 2.5 to 20 nM. For the same compound, in experiment [2], the IC50 fell in the range of 250 to 1000 nM.
With `COc1cc2ncc(-c3cc(F)c(OC)c(NS(=O)(=O)c4cc(C)sn4)c3)n2cc1S(=O)(=O)C(C)(C)C` [Example 292, N-(5-(6-(tert-butylsulfonyl)-7-methoxyimidazo[1,2-a]pyridin-3-yl)-3-fluoro-2-methoxyphenyl)-5-methylisothiazole-3-sulfonamide], in experiment [1], the Emax is 30 to 55% and the IC50 is under 1 nM. The IC50 in experiment [2] (Homo sapiens, THP1-Dual) lay in the range of 50 to 250 nM.
For the compound `COc1c(F)cc(-c2cnc3cc(OC[C@H](C)O)c(S(=O)(=O)C(C)(C)C)cn23)cc1NS(C)(=O)=O` [Example 269, (S)-N-(5-(6-(tert-butylsulfonyl)-7-(2-hydroxypropoxy)imidazo[1,2-a]pyridin-3-yl)-3-fluoro-2-methoxyphenyl) methanesulfonamide], in experiment [1], the Emax lay within 55 to 80%. The IC50 is under 1 nM in experiment [1] and under 50 nM in experiment [2] (Homo sapiens, THP1-Dual).
Consider `COc1c(F)cc(-c2cnc3cc(Cl)c(S(=O)(=O)C(C)(C)C)cn23)cc1NS(=O)(=O)c1cnn(C)c1` [Example 263, N-(5-(6-(tert-butylsulfonyl)-7-chloroimidazo[1,2-a]pyridin-3-yl)-3-fluoro-2-methoxyphenyl)-1-methyl-1H-pyrazole-4-sulfonamide], for which, in experiment [1], the Emax was over 80% and the IC50 is under 1 nM. Moreover, the IC50 in experiment [2] (Homo sapiens, THP1-Dual) was under 50 nM.
For `CC(C)(C)S(=O)(=O)c1cn2c(-c3cc(F)c(N)nc3F)cnc2cc1NCCO` [Example 272, 2-((3-(6-amino-2,5-difluoropyridin-3-yl)-6-(tert-butylsulfonyl)imidazo [1,2-a]pyridin-7-yl)amino)ethan-1-ol], in that order: over 80%, 1 to 2.5 nM and 50 to 250 nM.
The corresponding values for `COc1c(F)cc(-c2cnc3cc(OC[C@H](C)O)c(S(=O)(=O)C(C)(C)C)cn23)cc1NS(=O)(=O)c1cnn(C)c1` [Example 264, (S)-N-(5-(6-(tert-butylsulfonyl)-7-(2-hydroxypropoxy)imidazo [1,2-a]pyridin-3-yl)-3-fluoro-2-methoxyphenyl)-1-methyl-1H-pyrazole-4-sulfonamide] are over 80%, under 1 nM and under 50 nM.
The corresponding values for `COc1cc2ncc(-c3cc(F)c(OC)c(NCc4cnn(C)c4)c3)n2cc1S(=O)(=O)C(C)(C)C` [Example 301, 5-(6-(tert-butylsulfonyl)-7-methoxyimidazo[1,2-a]pyridin-3-yl)-3-fluoro-2-methoxy-N-((1-methyl-1H-pyrazol-4-yl)methyl)aniline] are 55 to 80%, under 1 nM and 50 to 250 nM.
Turning to `COc1ccc(-c2cnc3cc(OC)c(S(=O)(=O)C(C)(C)C)cn23)cc1NS(=O)(=O)c1cnn(C)c1` [Example 282, N-(5-(6-(tert-butylsulfonyl)-7-methoxyimidazo[1,2-a]pyridin-3-yl)-2-methoxyphenyl)-1-methyl-1H-pyrazole-4-sulfonamide], in experiment [1], the Emax was over 80% and the IC50 was under 1 nM. Further, the IC50 in experiment [2] (Homo sapiens, THP1-Dual) was under 50 nM.
The corresponding values for `COc1cc2ncc(-c3cc(F)c(OC)c(NS(=O)(=O)c4cn[nH]c4)c3)n2cc1S(=O)(=O)C(C)(C)C` [Example 140, N-(5-(6-(tert-butylsulfonyl)-7-methoxyimidazo[1,2-a]pyridin-3-yl)-3-fluoro-2-methoxyphenyl)-1H-pyrazole-4-sulfonamide] are over 80%, under 1 nM and under 50 nM.
For `COc1cc2ncc(-c3cc(F)c(OC)c(NS(=O)(=O)c4cnc(C)o4)c3)n2cc1S(=O)(=O)C(C)(C)C` [Example 290, N-(5-(6-(tert-butylsulfonyl)-7-methoxyimidazo[1,2-a]pyridin-3-yl)-3-fluoro-2-methoxyphenyl)-2-methyloxazole-5-sulfonamide], in that order: under 30%, over 20 nM and over 1000 nM.
For `COc1cc2ncc(-c3cc(F)c(OC)c(NS(=O)(=O)c4c(C)nn(C)c4C)c3)n2cc1S(=O)(=O)C(C)(C)C` [Example 139, N-(5-(6-(tert-butylsulfonyl)-7-methoxyimidazo[1,2-a]pyridin-3-yl)-3-fluoro-2-methoxyphenyl)-1,3,5-trimethyl-1H-pyrazole-4-sulfonamide], in that order: 55 to 80%, over 20 nM and over 1000 nM.
As to `CC(F)(CO)COc1cc2ncc(-c3cc(F)c(N)nc3F)n2cc1S(=O)(=O)C(C)(C)C` (single isomer, unassigned) [Example 261], the figures for the IC50 in experiment [1] and in experiment [2] were 1 to 2.5 nM and 50 to 250 nM, respectively.
With `COc1cc2ncc(-c3cc(F)cc(NS(=O)(=O)c4cnn(C)c4)c3)n2cc1S(=O)(=O)C(C)(C)C` [Example 284, N-(3-(6-(tert-butylsulfonyl)-7-methoxyimidazo[1,2-a]pyridin-3-yl)-5-fluorophenyl)-1-methyl-1H-pyrazole-4-sulfonamide], in experiment [1], the Emax was over 80% and the IC50 was under 1 nM. For the same compound, the IC50 in experiment [2] (Homo sapiens, THP1-Dual) was 50 to 250 nM.
The corresponding values for `COc1cc2ncc(-c3cc(F)c(OC)c(NS(=O)(=O)c4cnn(C)c4)c3)n2cc1S(=O)(=O)C(C)C` [Example 262, N-(3-fluoro-5-(6-(isopropylsulfonyl)-7-methoxyimidazo[1,2-a]pyridin-3-yl)-2-methoxyphenyl)-1-methyl-1H-pyrazole-4-sulfonamide] are over 80%, under 1 nM and under 50 nM.
The corresponding values for `COc1cc2ncc(-c3cc(C)c(OC)c(NS(=O)(=O)c4cnn(C)c4)c3)n2cc1S(=O)(=O)C(C)(C)C` [Example 286, N-(5-(6-(tert-butylsulfonyl)-7-methoxyimidazo[1,2-a]pyridin-3-yl)-2-methoxy-3-methylphenyl)-1-methyl-1H-pyrazole-4-sulfonamide] are over 80%, under 1 nM and 50 to 250 nM.
With `C[C@H](O)COc1cc2ncc(-c3cc4cc[nH]c4nc3F)n2cc1S(=O)(=O)C(C)(C)C` [Example 268, (S)-1-((6-(tert-butylsulfonyl)-3-(6-fluoro-1H-pyrrolo[2,3-b]pyridin-5-yl)imidazo[1,2-a]pyridin-7-yl)oxy)propan-2-ol], in experiment [1], the Emax is over 80% and the IC50 was under 1 nM. Also, the IC50 in experiment [2] (Homo sapiens, THP1-Dual) is under 50 nM.
